Experimental data as given in patent US20040121965A1, “Method of treating resistant tumors” (Wyeth Holdings Corporation, priority 2002, published 2004).
Read-outs that look alike come from different tables or passages of the source. Marks after values point to notes of the source that are not given here.

Experiments:
BT474 = experiment: Cell survival assay (SRB), BT474; format: cell-based; conditions: Homo sapiens, BT-474, 72 h
Method: (§1) 2.2. Cell Survival Assay: Standard Pharmacological Test Procedure. […] Compounds are incubated with cells for 3 days.

MX-1W = experiment: Cell survival assay (SRB), MX-1W; format: cell-based; conditions: Homo sapiens, MX1W, 72 h, 3 days
Text: (§2) Cells lines with previously known mechanisms of resistance. […] Res. 8: 207-218,1996); KB-3-1 (parental derived from an epidermoid carcinoma), KB-8.5, KB-V1 (Akiyama S-I, Fojo A, Hanover J A, Pastan I, Gottesman M M. Isolation and genetic characterization of human KB cell lines resistant to multiple drugs. Somatic Cell Mol. Gen., 11: 117-126,1985; Shen D-W, Cardarelli C, Hwang J, Cornwell M, Richert N, Ishii S, Pastan I, Gottesman MM. […] J. Biol. Chem., 261: 7762-7770, 1986); and HL-60 (parental derived from human leukemia) and HL60/AR (McGrath T., Center M. S. Adriamycin resistance in HL60 cells in the absence of detectable P-glycoprotein. Biochem. Res. Commun., 145:1171-1176,1987); A549 and A549.EpoB40 (He L., Yang C.-P.H., Horwitz S. B. Mutations in p-tubulin map to domains involved in regulation of microtubule stability in epothilone-resistant cell lines. Molecular Cancer Therapeutics. 1: 3-10, 2001). HCT-15 human colon carcinoma and DLD-1 human colon carcinoma are obtained from American Tissue Culture Collection. The MX-1W carcinoma is a Wyeth variant orginally obtained as MX-1 breast carcinoma from the National Cancer Institute. Cell lines selected for resistance to Representative Example 129. KB-3-1 cells are selected for resistance to Example 129 by chronically exposing cells to increasing concentrations of Example 129.
(§3) 2.2. Cell Survival Assay: Standard Pharmacological Test Procedure. The concentration of candidate inhibitor required to inhibit 50% of cell growth (IC50) is done according to previously reported methods. […] Compounds are serially diluted into media as 2× stocks and 100 μl added to cells in duplicate. Compounds are incubated with cells for 3 days. At the end of the incubation period the sulforhodamine B (SRB) assay, which measures protein content as an assessment of cell survival, is performed as described previously (Skehan P, Storeng R, Scudiero D, Monks A, McMahon J, Vistica D, Warren J T, Bokesch H, Kenney S, Boyd MR. New calorimetric cytotoxicity assay for anticancer-drug screening. J Natl Cancer Inst 1990 Jul 4;82(13):1107-12) with some modification as follows. For KB-3-1 cells with 20% FCS, media is gently decanted and replaced with 200 μl of serum-free media mixed with cold 50% TCA for a final concentration of 10% TCA. The plates are incubated for 1 hr at 4° C., followed by washing 5 times in cold distilled water, then air dried overnight. The fixed cells are stained for 10 min with 80 μl of 0.04% SRB solution prepared in 1% glacial acetic acid. Stain is discarded and plates washed 5 times in 1% glacial acetic acid, then air-dried until completely dry. Stained cell product is dissolved in 150 μl of 10 mM Trizma Base and placed on a shaker for 20 minutes until fully dissolved. Absorbance is read on a Victor V multi-label plate reader (Perkin Elmer, Gaithersburg, Md.).

DLD-1 = experiment: Cell survival assay (SRB), DLD-1; format: cell-based; conditions: Homo sapiens, DLD-1, 72 h, 3 days
Text: as §2, §3

HCT-116 = experiment: Cell survival assay (SRB), HCT-116; format: cell-based; conditions: Homo sapiens
Method: as §1

HT-29 = experiment: Cell survival assay (SRB), HT-29; format: cell-based; conditions: Homo sapiens
Method: as §1

HL60 = experiment: Cell survival assay (MTS), HL60; format: cell-based; conditions: Homo sapiens
SK-Mel-2 = experiment: Cell survival assay (SRB), SK-Mel-2; format: cell-based; conditions: Homo sapiens
Method: as §1

SK-MES-1 = experiment: Cell survival assay (SRB), SK-MES-1; format: cell-based; conditions: Homo sapiens
Method: as §1

1A9 = experiment: Cell survival assay (SRB), 1A9; format: cell-based; conditions: Homo sapiens
Method: as §1

SKOV3 = experiment: Cell survival assay (SRB), SKOV3; format: cell-based; conditions: Homo sapiens, SK-OV-3, 72 h
Method: as §1

BxPC3 = experiment: Cell survival assay (SRB), BxPC3; format: cell-based; conditions: Homo sapiens, BXPC-3, 72 h
Method: as §1

KB-HTI-4.0 = experiment: Cell survival assay, KB-3-1 line made resistant to Example 129 (KB-HTI-4.0); format: cell-based, human; conditions: for IC50: Homo sapiens
[1] = tested on: Human Epidermoid Carcinoma KB-3-1; experiment: Growth of tumors in nude mice, KB-3-1 xenograft; format: in vivo; conditions: for % T/C on day 7 / % T/C on day 14 / % T/C on day 21: KB-3-1, days 1,5,9
Method: (§4) 2.4. Growth of Tumors in Nude Mice.
In these experiments, xenografts are implanted subcutaneously into the flanks of nude mice. […] Relative tumor mass compared to controls are assessed during the 21-day post-staging period.
Groups of 5 female nu/nu mice are injected with 1.5×10^6 KB-3-1 (A) or Lox cells (B). […] Relative tumor growth is determined during the experiment and % T/C calculated. Statistical analyses are Student's t-test of treated time points vs. vehicle (*, P<0.05; **, P<0.01)

MX-1W tumor = experiment: Growth of tumors in nude mice, MX-1W xenograft; format: in vivo; conditions: for % T/C on day 7 / % T/C on day 14: MX-1W, days 1,5,9; for Activity in nude mice animal model (% T/C @ MTD on days 11-15) MX-1W: staged MX-1W xenograft, at MTD
Text: as §4

With `CC(=O)O[C@H]1C(=O)[C@@]2(C)[C@H]([C@H](OC(=O)c3ccccc3)[C@]3(O)C[C@H](OC(=O)[C@H](O)[C@@H](NC(=O)c4ccccc4)c4ccccc4)C(C)=C1C3(C)C)[C@]1(OC(C)=O)CO[C@@H]1C[C@@H]2O` [paclitaxel, reference compound] the IC50 (BT474; BT474, breast, 3 days, SRB staining, read-out: IC50) was 10 nM, the IC50 (MX-1W; MX-1W, breast, SRB staining, read-out: IC50) was 15.4 ± 2.9 nM and the IC50 (MX-1W; MX-1W, SRB, + 5.0 uM 7-(6,7-dimethoxy-3,4-dihydro-1H-isoquinolin-2-yl)-2(3,4-dimethoxy-phenyl)-2-p-tolysulfanyl-heptanenitrile, read-out: IC50 + 5.0 uM MDR-1 inhibitor) was 8.3 nM. It also gave an IC50 (MX-1W; MX-1W, SRB, vehicle control (DMSO), no MDR-1 inhibitor, read-out: IC50) of 138 nM, an IC50 (DLD-1; DLD-1, colon, SRB staining, read-out: IC50) of 30.8 ± 12.7 nM and an IC50 (DLD-1; DLD-1, SRB, + 5.0 uM MDR-1 inhibitor (heptanenitrile of Table 2), read-out: IC50 + 5.0 uM MDR-1 inhibitor) of 3.8 nM. The IC50 (DLD-1; DLD-1, SRB, vehicle control (DMSO), no MDR-1 inhibitor, read-out: IC50) was 21.8 nM, the IC50 (HCT-116; 72 h, HCT-116, colon, 3 days, SRB staining, read-out: IC50) was 4.5 nM and the IC50 (HT-29; 72 h, HT-29, colon, 3 days, SRB staining, read-out: IC50) was 6.1 nM. The IC50 (HL60; HL-60, 72 h, HL60, leukemia, 3 days, MTS assay, read-out: IC50) was 1.8 nM, the IC50 (HL60; HL-60, HL60 parental, Table 5, read-out: HL60 IC50, nM (N)) was 1.8 nM and the IC50 (SK-Mel-2; 72 h, SK-Mel-2, melanoma, 3 days, SRB staining, read-out: IC50) was 3.2 ± 1.8 nM. For the same compound, the IC50 (SK-MES-1; 72 h, SK-MES-1, NSCLC, 3 days, SRB staining, read-out: IC50) was 29 nM, the IC50 (1A9; 72 h, 1A9, ovarian, 3 days, SRB staining, read-out: IC50) was 5.1 ± 0.9 nM and the IC50 (SKOV3; SKOV3, ovarian, 3 days, SRB staining, read-out: IC50) was 9 nM. For the same compound, the IC50 (BxPC3; BxPC3, pancreatic, 3 days, SRB staining, read-out: IC50) was 10.8 nM, the IC50 (KB-HTI-4.0; KB-3-1 line made resistant to Example 129, Table 8, read-out: KB-HTI-4.0 IC50) was 3.18 ± 0.62 nM and the “% T/C on day 7” value ([1]; paclitaxel 60 mg/kg IV) was 5** %. For the same compound, the “% T/C on day 14” value ([1]; paclitaxel 60 mg/kg IV) was 0** %, the “% T/C on day 21” value ([1]; paclitaxel 60 mg/kg IV) was 0** % and the “% T/C on day 7” value (MX-1W tumor; paclitaxel 60 mg/kg IV) was 76%. The “% T/C on day 14” value (MX-1W tumor; paclitaxel 60 mg/kg IV) was 77% and the “Activity in nude mice animal model (% T/C @ MTD on days 11-15) MX-1W” value (MX-1W tumor) was 73%.

Compound `CN[C@H](C(=O)N[C@H](C(=O)N(C)[C@H](/C=C(\C)C(=O)O)C(C)C)C(C)(C)C)C(C)(C)c1ccccc1` [Example 129, N,β,β-trimethyl-L-phenylalanyl-N^1-[(1S,2E)-3-carboxy-1-isopropylbut-2-enyl]-N^1,3-dimethyl-L-valinamide] has an IC50 (BT474) of 2.5 ± 1.6 nM, an IC50 (MX-1W; MX-1W, breast, SRB staining) of 1.8 ± 0.6 nM and an IC50 (MX-1W; MX-1W, SRB, vehicle control (DMSO), no MDR-1 inhibitor) of 1.4 nM. For the same compound, the IC50 (MX-1W; read-out: IC50 + 5.0 uM MDR-1 inhibitor, MX-1W, SRB, + 5.0 uM 7-(6,7-dimethoxy-3,4-dihydro-1H-isoquinolin-2-yl)-2(3,4-dimethoxy-phenyl)-2-p-tolysulfanyl-heptanenitrile) was 1.3 nM, the IC50 (DLD-1; DLD-1, colon, SRB staining) was 1.1 ± 0.4 nM and the IC50 (DLD-1; DLD-1, SRB, vehicle control (DMSO), no MDR-1 inhibitor) was 1.2 nM. It also gave an IC50 (DLD-1; read-out: IC50 + 5.0 uM MDR-1 inhibitor, DLD-1, SRB, + 5.0 uM MDR-1 inhibitor (heptanenitrile of Table 2)) of 1.1 nM, an IC50 (HCT-116; HCT-116, 72 h) of 0.7 ± 0.2 nM and an IC50 (HT-29; HT-29, 72 h) of 1.6 nM. It also gave an IC50 (HL60; HL-60, 72 h) of 0.21 ± 0.05 nM, an IC50 (HL60; HL-60, read-out: HL60 IC50, nM (N)) of 0.212 ± 0.048 nM and an IC50 (SK-Mel-2; SK-MEL-2, 72 h) of 1.7 ± 0.5 nM. It also gave an IC50 (SK-MES-1; SK-MES-1, 72 h) of 2.6 nM, an IC50 (1A9; 1A9, 72 h) of 0.56 ± 0.09 nM and an IC50 (SKOV3) of 1.7 nM. The IC50 (BxPC3) was 0.7 nM, the “(RR) relative resistance vs. parental cells” value (KB-HTI-4.0) was “(12)” and the “resistance of KB-3-1-derived cell lines selected with Example 129” value (KB-HTI-4.0) was “approximately 12 fold”. For the same compound, the IC50 (KB-HTI-4.0; KB 3-1, read-out: KB-HTI-4.0 IC50, nM) was 6.5 ± 1.6 nM, the “growth inhibition of epidermoid KB-3-1 tumors” value ([1]; IV in saline, days 1, 5, 9 post-staging, 0.5-1 mg/kg, tumors 1-2 gram) was greater than 95% and the “% T/C on day 7” value ([1]; Example 129 1.6 mg/kg IV) was 10** %. The “% T/C on day 14” value ([1]; Example 129 1.6 mg/kg IV) was 1** %, the “% T/C on day 21” value ([1]; Example 129 1.6 mg/kg IV) was 23* % and the “% T/C on day 7” value (MX-1W tumor; Example 129 1.6 mg/kg IV) was 14** %. The “% T/C on day 14” value (MX-1W tumor; Example 129 1.6 mg/kg IV) was 3** %, the “effect on growth of MX-1W tumor” value (MX-1W tumor; orally administered) was “inhibited the growth” and the “Activity in nude mice animal model (% T/C @ MTD on days 11-15) MX-1W” value (MX-1W tumor) was 6%.
